In patent publication US6218157A, “Haloacetoacetate reductase, method for producing said enzyme, and method for producing alcohols using said enzyme” (priority 1997, dated 2001):
Where two headings read alike, the source gives them in different places.

Assays:
Type in all cases: biochemical
[1] = molecular target: T1, ethyl 4-chloroacetoacetate reductase (Kluyveromyces lactis, UniProt Q6CT25); assay: Substrate specificity: reducing activity of the enzyme on various ketones and aldehydes; settings: for Relative activity: coenzyme NADPH, ethyl 4-chloroacetoacetate-reducing activity = 100%; for Reducing activity on substrate (in words): NADPH as electron donor
T1 construct: almost single band, about 190 kDa on SDS-PAGE
Description: (§1) In these examples, the 4-haloacetoacetic acid ester-reducing activity of the enzyme of this invention was determined by allowing it to react in a reaction system containing 50 mM potassium phosphate buffer (pH 6.5), 0.2 mM NADPH, 20 mM ethyl 4-chloroacetoacetate, and the enzyme at 30° C. and measuring the decrease in the absorbance at 340 nm in proportion to the decrease of NADPH. One unit of the enzyme was defined as the amount of the enzyme to catalyze a decrease of 1 μmol of NADPH per min. Protein was quantitated by the pigment binding method using a protein assay kit manufactured by BioRad.

[2] = molecular target: T1, ethyl 4-chloroacetoacetate reductase; assay: as above; settings: substrate 20 mM, coenzyme NAD; ethyl 4-chloroacetoacetate-reducing activity = 100%
[3] = molecular target: T1, ethyl 4-chloroacetoacetate reductase; assay: Effects of various inhibitors on the ethyl 4-chloroacetoacetate-reducing activity
Description: as §1
After the enzyme obtained in Example 1 was treated with various reagents at 30° C. for 10 min, it was assayed for the remaining activity to reduce ethyl 4chloroacetoacetate.

[4] = inhibitor 1 mM, 30° C., 10 min, standard conditions = 100%
[5] = inhibitor 1 mM, 30° C., 10 min, standard conditions = 100%, read-out: Residual activity

T1 sequence (Q6CT25 1-1893): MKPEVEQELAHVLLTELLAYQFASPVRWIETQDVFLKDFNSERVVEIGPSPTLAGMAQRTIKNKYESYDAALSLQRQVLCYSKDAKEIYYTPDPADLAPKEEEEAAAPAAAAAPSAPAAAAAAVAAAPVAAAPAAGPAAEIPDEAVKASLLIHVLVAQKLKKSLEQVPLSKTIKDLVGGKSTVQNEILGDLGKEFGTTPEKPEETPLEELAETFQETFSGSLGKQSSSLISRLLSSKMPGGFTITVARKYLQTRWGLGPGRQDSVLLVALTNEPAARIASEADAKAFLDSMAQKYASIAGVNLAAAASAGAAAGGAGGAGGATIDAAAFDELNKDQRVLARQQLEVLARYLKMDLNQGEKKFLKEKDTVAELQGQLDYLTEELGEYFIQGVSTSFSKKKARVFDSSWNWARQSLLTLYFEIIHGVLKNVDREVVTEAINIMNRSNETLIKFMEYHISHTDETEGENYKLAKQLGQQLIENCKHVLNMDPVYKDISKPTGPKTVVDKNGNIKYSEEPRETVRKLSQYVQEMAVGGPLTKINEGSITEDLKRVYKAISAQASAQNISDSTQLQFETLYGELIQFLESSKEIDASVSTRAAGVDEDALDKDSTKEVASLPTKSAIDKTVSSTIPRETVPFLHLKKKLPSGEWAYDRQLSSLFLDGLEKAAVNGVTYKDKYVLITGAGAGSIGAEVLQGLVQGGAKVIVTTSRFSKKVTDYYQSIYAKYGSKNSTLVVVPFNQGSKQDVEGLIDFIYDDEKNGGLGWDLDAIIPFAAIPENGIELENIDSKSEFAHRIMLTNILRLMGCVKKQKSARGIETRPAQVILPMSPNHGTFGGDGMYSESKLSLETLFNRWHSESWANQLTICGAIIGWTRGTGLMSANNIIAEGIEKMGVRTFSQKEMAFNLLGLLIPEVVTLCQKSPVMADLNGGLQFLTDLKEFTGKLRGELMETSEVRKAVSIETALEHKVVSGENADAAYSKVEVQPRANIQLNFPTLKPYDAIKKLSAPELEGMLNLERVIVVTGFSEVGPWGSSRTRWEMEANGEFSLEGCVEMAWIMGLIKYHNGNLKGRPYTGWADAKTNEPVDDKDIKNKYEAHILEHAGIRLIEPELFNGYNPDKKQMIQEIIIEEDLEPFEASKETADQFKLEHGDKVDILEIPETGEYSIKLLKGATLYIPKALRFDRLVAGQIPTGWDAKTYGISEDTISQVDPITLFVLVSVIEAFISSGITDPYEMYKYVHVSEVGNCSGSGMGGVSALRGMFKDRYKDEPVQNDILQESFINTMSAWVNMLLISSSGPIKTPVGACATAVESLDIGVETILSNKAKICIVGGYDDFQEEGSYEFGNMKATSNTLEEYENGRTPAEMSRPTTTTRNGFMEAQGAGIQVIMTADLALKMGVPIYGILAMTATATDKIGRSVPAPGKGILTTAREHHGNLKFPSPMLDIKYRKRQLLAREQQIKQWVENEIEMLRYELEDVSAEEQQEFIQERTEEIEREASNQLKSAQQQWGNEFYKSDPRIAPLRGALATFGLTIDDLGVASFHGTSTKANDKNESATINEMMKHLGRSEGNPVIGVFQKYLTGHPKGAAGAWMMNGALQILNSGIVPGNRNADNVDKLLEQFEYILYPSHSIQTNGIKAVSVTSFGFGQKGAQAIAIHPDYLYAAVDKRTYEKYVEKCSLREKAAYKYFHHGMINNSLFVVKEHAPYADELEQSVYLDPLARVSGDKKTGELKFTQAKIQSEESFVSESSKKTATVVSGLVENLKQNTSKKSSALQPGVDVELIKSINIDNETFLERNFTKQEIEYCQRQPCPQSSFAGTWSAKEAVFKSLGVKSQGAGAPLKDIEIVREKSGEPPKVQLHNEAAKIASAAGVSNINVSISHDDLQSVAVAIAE
T1 sequence (Q6CWN6 1-2047 partner): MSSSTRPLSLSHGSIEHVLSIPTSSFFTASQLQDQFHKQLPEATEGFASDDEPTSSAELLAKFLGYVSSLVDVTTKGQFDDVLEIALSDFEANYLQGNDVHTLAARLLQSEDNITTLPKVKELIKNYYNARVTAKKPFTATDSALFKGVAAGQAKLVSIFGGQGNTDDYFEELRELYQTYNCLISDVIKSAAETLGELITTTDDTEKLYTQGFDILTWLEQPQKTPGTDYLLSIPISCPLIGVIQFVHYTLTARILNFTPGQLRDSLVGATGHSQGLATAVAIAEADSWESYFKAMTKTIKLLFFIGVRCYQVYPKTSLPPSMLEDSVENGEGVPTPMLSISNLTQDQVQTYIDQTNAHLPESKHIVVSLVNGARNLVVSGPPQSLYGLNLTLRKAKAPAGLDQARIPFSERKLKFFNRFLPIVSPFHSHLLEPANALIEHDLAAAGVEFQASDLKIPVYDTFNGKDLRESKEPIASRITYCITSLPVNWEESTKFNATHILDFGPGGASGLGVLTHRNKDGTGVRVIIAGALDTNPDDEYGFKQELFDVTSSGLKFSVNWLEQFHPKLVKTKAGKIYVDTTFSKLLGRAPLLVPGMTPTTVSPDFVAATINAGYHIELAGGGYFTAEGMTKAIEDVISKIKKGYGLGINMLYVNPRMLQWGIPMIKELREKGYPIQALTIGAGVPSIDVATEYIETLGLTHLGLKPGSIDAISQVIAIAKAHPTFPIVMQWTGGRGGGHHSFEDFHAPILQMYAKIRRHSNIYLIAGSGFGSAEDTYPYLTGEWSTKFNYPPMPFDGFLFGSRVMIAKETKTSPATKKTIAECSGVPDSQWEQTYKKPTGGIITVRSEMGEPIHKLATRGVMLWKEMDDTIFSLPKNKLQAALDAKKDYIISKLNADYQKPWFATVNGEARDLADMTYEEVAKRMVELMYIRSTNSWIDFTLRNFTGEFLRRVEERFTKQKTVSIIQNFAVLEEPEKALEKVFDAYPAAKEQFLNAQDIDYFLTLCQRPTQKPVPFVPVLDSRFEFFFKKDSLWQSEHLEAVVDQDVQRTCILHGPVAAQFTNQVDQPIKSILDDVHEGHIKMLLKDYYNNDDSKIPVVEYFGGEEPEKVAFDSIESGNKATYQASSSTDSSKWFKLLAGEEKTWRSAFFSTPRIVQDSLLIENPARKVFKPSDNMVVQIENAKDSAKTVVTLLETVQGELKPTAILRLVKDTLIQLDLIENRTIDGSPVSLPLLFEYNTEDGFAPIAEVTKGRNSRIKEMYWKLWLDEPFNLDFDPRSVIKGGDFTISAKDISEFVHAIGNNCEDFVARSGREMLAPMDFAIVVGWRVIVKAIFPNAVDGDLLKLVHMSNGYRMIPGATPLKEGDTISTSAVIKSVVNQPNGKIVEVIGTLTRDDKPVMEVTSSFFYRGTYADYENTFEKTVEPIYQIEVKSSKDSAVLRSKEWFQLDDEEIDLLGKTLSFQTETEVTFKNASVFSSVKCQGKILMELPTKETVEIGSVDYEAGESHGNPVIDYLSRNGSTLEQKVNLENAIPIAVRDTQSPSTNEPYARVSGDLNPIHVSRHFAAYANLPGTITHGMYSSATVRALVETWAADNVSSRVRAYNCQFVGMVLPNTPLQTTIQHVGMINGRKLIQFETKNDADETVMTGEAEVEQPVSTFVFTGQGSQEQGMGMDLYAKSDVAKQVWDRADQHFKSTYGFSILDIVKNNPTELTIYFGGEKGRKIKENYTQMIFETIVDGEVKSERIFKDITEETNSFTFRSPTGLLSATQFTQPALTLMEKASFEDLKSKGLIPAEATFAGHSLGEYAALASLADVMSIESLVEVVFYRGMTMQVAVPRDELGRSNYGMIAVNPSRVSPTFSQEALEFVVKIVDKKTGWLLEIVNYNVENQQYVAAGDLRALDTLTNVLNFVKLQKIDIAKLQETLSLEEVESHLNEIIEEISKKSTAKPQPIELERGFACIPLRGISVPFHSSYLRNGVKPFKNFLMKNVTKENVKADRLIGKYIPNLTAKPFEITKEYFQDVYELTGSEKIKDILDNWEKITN

Q: How did the Relative activity ([1]; substrate 20 mM) turn out when CCOC(=O)C(=O)CCc1ccccc1 was run?
A: 0%

Q: CCOC(=O)C[C@H](O)CCl was tested. Which Relative activity [2] did it give?
A: 0%

Q: For CC(=O)C(C)=O [2,3-Butanedione], which Relative activity ([1]; substrate 20 mM) is on record?
A: 4.2%

Q: CCC(=O)C(C)=O [2,3-Pentanedione] was tested. Which “Reducing activity on substrate (in words)” value [1] did it give?
A: high activity

Q: What about the Relative activity ([1]; substrate 20 mM) of the same molecule?
A: 44.2%

Q: Which Relative activity ([1]; substrate 20 mM) does the source give for CC(=O)CC(C)=O [2,4-Pentanedione] here?
A: 0%

Q: With O=C1CN2CCC1CC2 [3-Quinuclidinone] as the molecule, how does the Relative activity ([1]; substrate 20 mM) read?
A: 0.8%

Q: CC(=O)CCO [4-Hydroxy-2-butanone] was tested. Which Relative activity ([1]; substrate 20 mM) did it give?
A: 0%

Q: CC(=O)c1ccccc1 [Acetophenone] was tested. Which Relative activity ([1]; substrate 20 mM) did it give?
A: 0%

Q: With CC(=O)COC(C)=O [Acetoxy-2-propanone] as the molecule, how does the Relative activity ([1]; substrate 20 mM) read?
A: 0%

Q: For O=C(O)C(=O)CCc1ccccc1 [Benzylpyruvic acid], which Relative activity ([1]; substrate 1 mM) is on record?
A: 0%

Q: With C/C=C/C(=O)O [Chlotonic acid] as the molecule, how does the remaining activity at 50000 µM ([3]; inhibitor 50 mM, 30° C., 10 min, standard conditions = 100%, read-out: Residual activity) read?
A: 87.7%

Q: With O=S(=O)([O-])[O-].[Cu+2] [Copper sulfate] as the molecule, how does the “Inhibition of the enzyme (in words)” value [3] read?
A: inhibited

Q: What about the Residual activity [3, 4] of the same molecule?
A: 0.0%

Q: What about the “Inhibition of the enzyme (in words)” value ([3]; listed as cupric sulfate) of the same molecule?
A: significantly inhibited

Q: With CCC1(CC)C(=O)NC(=O)NC1=O [Diethylbarbituric acid] as the molecule, how does the remaining activity at 1000 µM [3, 5] read?
A: 82.5%

Q: Which Relative activity ([1]; substrate 20 mM) does the source give for CCOC(=O)CC(=O)CCl [Ethyl 4-chloroacetoacetate] here?
A: 100%

Q: What about the Relative activity ([1]; substrate 20 mM, listed as Ethyl 4-chloroacetoaetate) of the same molecule?
A: 0%

Q: With CCOC(=O)C[C@@H](O)CCl [Ethyl (R)-4-chloro-3-hydroxy-acetate] as the molecule, how does the Relative activity [2] read?
A: 0%

Q: CCOC(=O)CC(C)=O [Ethyl acetoacetate] was tested. Which Relative activity ([1]; substrate 20 mM) did it give?
A: 0%

Q: O=C(O)CN(CCN(CC(=O)O)CC(=O)O)CC(=O)O [Ethylenediaminetetraacetic acid] was tested. Which remaining activity at 1000 µM ([3]; read-out: Residual activity) did it give?
A: 98.4%

Q: How did the remaining activity at 1000 µM [3, 5] turn out when NC(=O)CI [Iodoacetamide] was run?
A: 53.9%

Q: O=C1Nc2ccccc2C1=O [Isatine] was tested. Which Relative activity ([1]; substrate 0.4 mM) did it give?
A: 0%

Q: For [Cl][Hg][Cl] [Mercuric chloride], which “Inhibition of the enzyme (in words)” value [3] is on record?
A: significantly inhibited

Q: And the Residual activity ([3]; inhibitor 0.01 mM, 30° C., 10 min, standard conditions = 100%)?
A: 0.0%

Q: What does the source list for COC(=O)CC(=O)CCl [Methyl 4-chloroacetoacetate]?
A: Reducing activity on substrate (in words) [1]: high activity; Relative activity ([1]; substrate 20 mM): 66.3%

Q: COC(=O)CC(C)=O [Methyl acetoacetate] was tested. Which Relative activity ([1]; substrate 20 mM) did it give?
A: 0%

Q: For C=CC(C)=O [Methyl vinyl ketone], which “Inhibition of the enzyme (in words)” value [3] is on record?
A: inhibited

Q: What about the remaining activity at 10000 µM ([3]; inhibitor 10 mM, 30° C., 10 min, standard conditions = 100%, read-out: Residual activity) of the same molecule?
A: 26.3%

Q: With CC(=O)C=O [Methylglyoxal] as the molecule, how does the Relative activity ([1]; substrate 20 mM) read?
A: 1.8%

Q: Which results are given for CCN1C(=O)C=CC1=O [N-ethylmaleimide]?
A: Inhibition of the enzyme (in words) [3]: inhibited; remaining activity at 1000 µM [3, 5]: 20.1%

Q: For O=CC(=O)c1ccccc1 [Phenylglyoxal], which Relative activity ([1]; substrate 0.5 mM) is on record?
A: 0%

Q: How did the Residual activity [3, 4] turn out when O=S(=O)(F)Cc1ccccc1 [Phenylmethanesulfonyl fluoride] was run?
A: 89.4%

Q: How did the Relative activity ([1]; substrate 20 mM) turn out when CCC=O [Propionaldehyde] was run?
A: 0%

Q: O=Cc1cccnc1 [Pyridine-3-aldehyde] was tested. Which Relative activity ([1]; substrate 20 mM) did it give?
A: 0%

Q: With O=c1c(O)c(-c2ccc(O)c(O)c2)oc2cc(O)cc(O)c12 [Quercetin] as the molecule, how does the remaining activity at 100 µM ([3]; inhibitor 0.1 mM, 30° C., 10 min, standard conditions = 100%, read-out: Residual activity) read?
A: 68.1%

Q: For O=C[C@H](O)[C@@H](O)[C@H](O)CO [Xylose], which Relative activity ([1]; substrate 20 mM) is on record?
A: 0%

Q: O=S(=O)([O-])[O-].[Zn+2] [Zinc sulfate] was tested. Which “Inhibition of the enzyme (in words)” value [3] did it give?
A: inhibited

Q: What about the Residual activity [3, 4] of the same molecule?
A: 12.2%

Q: With O=Cc1cccc([N+](=O)[O-])c1 [m-Nitrobenzaldehyde] as the molecule, how does the Relative activity ([1]; substrate 0.2 mM) read?
A: 0.4%

Q: How did the Relative activity ([1]; substrate 0.2 mM) turn out when O=Cc1ccccc1[N+](=O)[O-] [o-Nitrobenzaldehyde] was run?
A: 0%

Q: c1cnc2c(c1)ccc1cccnc12 [o-Phenanthroline] was tested. Which remaining activity at 1000 µM [3, 5] did it give?
A: 88.3%

Q: What does the source list for O=C(O)c1cc[c]([Hg][Cl])cc1 [p-Chloromercuribenzoic acid]?
A: Inhibition of the enzyme (in words) [3]: completely inhibited; Residual activity ([3]; inhibitor 0.05 mM, 30° C., 10 min, standard conditions = 100%): 0.0%; Inhibition of the enzyme (in words) ([3]; listed as p-chloromercuricbenzoic acid): significantly inhibited

Q: For O=Cc1ccc([N+](=O)[O-])cc1 [p-Nitrobenzaldehyde], which Relative activity ([1]; substrate 0.2 mM) is on record?
A: 0%
